This is an account of results in patent US4994450A, “Azacyclic compounds and their use as analgesic agents” (Dr. Lo. Zambeletti S.p.A., priority 1988, dated 1991).

Counter-ions that a name gives are not always drawn.

Assay [1] has as its target T1, Kappa opiate receptor (brain) (Cavia porcellus, UniProt P41144).
T1 construct: performed on fresh guinea pig brain homogenate; from tissue; host or cells: guinea pig whole brain without cerebellum, homogenate
The assay is described as follows: Opiate receptor binding, kappa (brain). Also on record: species or system guinea pig. As for the experimental part: (§1) Radio receptor binding to μ and K sites is performed on fresh guinea pig brain homogenate prepared according to Kosterlitz. (1981).
(§2) Whole brain without cerebellum is homogenized in 50 mM, Tris-buffer (pH 7.4 at 0° C.) and centrifuged at 49,000×g×10 min.
(§3) The pellet is then resuspended in the same buffer, incubated at 37° C. for 45 min. and centrifuged again.
(§4) 1.9 ml of the final homogenate (1:100 in Tris-pH 7.4, 0° C.) is used for the binding assay.
The binding to the K-sites is performed using ^3 H-Ethyl Ketocyclazocine, a non-selective benzomorphan compound which binds to μ, δ and K-sites, in the presence of 100nM of unlabelled DAGO and 100nM of the enkephalin analogue [DAla^2 -DLeu^5 ]Enkephalin (DADLE), to prevent μ and δ binding respectively. […]
(§5) The radioactivity bound to the filters is counted by liquid scintillation spectrophotometry.
(§6) The non-specific binding is determined in the presence of 500nM of the benzomorphan non-selective compound Mr 2266.
(§7) The equilibrium dissociation constant (KD) and the maximum binding capacity (Bmax) are determined from the analysis of saturation curves, while the inhibition constant (Ki) is determined from the analysis of competition experiments (Hill 1910; Scatchard 1949; Cheng and Prusoff 1973; Gillan et al. 1980) Published references are summarised as follows: […]

The test system of assay [2] is mice. Nature of the assay: Tail-flick test in mice. The class given is in vivo, mouse (male Charles River, Swiss Strain). Conditions: subcutaneous, 30 min pretreatment. As for the experimental part:
(B) Tail-flick test in mice
The methodology employed is based on that described by D'Amour and Smith, J. Pharmacol. Exp. Ther. 72. 74/1941.
Male Charles River mice (Swiss Strain), 22-34g body weight were used. Animals were allowed food and water ad libitum and were randomized into groups of 10 prior to experimentation.
Test compounds were dissolved in either distilled water or distilled water plus 0.1 M AMS and administered by the subcutaneous route in a final volume of 10 ml/Kg. Control animals received 10 ml/kg of the appropriate vehicle alone. Following a pretreatment period of 30 min., the mice were again placed under the heat source and the reaction tine re-determined.
Percentage quantal protection was determined as the number of mice in which the reaction time was doubled compared to pretreatment values, expressed as a percentage of the total number of mice in the group.
On the technique in general: Thermal pain tests record how soon the animal reacts.

In assay [3] the target is T2, Kappa opiate receptor (spinal cord) (Cavia porcellus, UniProt P41144).
T2 construct: spinal cord kappa-receptors; from tissue
T2 sequence (P41144 whole entry): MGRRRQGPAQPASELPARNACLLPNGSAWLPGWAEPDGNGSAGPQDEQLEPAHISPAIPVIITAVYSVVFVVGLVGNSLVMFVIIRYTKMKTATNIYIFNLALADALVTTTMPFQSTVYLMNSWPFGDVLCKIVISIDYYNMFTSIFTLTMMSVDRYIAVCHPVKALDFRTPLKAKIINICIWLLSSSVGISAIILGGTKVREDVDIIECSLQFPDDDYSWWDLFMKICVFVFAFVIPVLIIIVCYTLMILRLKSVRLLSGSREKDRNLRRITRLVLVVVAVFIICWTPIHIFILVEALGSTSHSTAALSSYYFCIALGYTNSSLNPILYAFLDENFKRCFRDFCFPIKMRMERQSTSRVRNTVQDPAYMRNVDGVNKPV
Nature of the assay: Opiate receptor binding, kappa (spinal cord). As for the experimental part:
The binding to the K-sites is performed using ^3 H-Ethyl Ketocyclazocine, a non-selective benzomorphan compound which binds to μ, δ and K-sites, in the presence of 100nM of unlabelled DAGO and 100nM of the enkephalin analogue [DAla^2 -DLeu^5 ]Enkephalin (DADLE), to prevent μ and δ binding respectively.
Final homogenate with solutions of the cold ligand and of the labelled ligand is incubated for 40 min. at 25° C., filtered through Whatman GF/C glass filter discs and washed.
as §5, §6, §7

For assay [4], the target named is T3, Mu opiate receptor (brain) (Cavia porcellus, UniProt A0ACM8Q262).
T3 construct: [3H]DAGO (DAMGO) displacement
T3 sequence (A0ACM8Q262 1-400): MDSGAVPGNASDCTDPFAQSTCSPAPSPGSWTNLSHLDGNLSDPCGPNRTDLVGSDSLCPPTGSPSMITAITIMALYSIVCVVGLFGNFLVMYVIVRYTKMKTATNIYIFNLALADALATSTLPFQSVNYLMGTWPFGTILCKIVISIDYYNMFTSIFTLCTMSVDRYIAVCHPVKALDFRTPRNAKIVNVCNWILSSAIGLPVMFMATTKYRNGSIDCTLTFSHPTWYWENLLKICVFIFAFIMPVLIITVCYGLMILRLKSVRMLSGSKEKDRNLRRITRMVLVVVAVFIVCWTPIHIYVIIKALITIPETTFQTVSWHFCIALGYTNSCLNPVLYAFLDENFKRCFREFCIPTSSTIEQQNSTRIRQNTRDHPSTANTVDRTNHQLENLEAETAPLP
Nature of the assay: Opiate receptor binding, mu (brain). Also on record: species or system guinea pig. Conditions: 3H-DAGO, 40 min, 25° C. As for the experimental part: as §1, §2, §3, §4
^3 H [D-Ala^2, MePhe^4, Gly-ol^5 ] Enkephalin (^3 H-DAGO), an enkephalin analogue that binds selectively to μ receptor, is added to the biological substrate and incubated at 25° C. for 40 min., filtered through Whatman GF-C and washed with ice-cold Tris-buffer.
The filters are then dryed, solubilized in Filtercount and the radioactivity monitored. Non specific binding is determined in the presence of 10^-6 M Naloxone.
as §7

The test system of assay [5] is mice. Nature of the assay: P-phenylquinone-induced abdominal writhing test in mice. It is filed as in vivo, mouse (male Charles River, Swiss Strain). The note with it: Mus musculus, sc; subcutaneous, 20 min pretreatment, p-phenylquinone 2 mg/Kg i.p. As for the experimental part: (A) P-phenylquinone-induced abdominal writing test in mice
The methodology employed is based on that described by Sigmund et al, Proc. Soc. Exptl. Biol. 95, 729/1957, modified by Milne and Twomey, Agents and Actions, 10, 31/1980.
Male Charles River mice (Swiss Strain), 25-36g body weight, were used. Animals were allowed food and water ad libitum and were randomized into groups of 10 prior to experimentation. Test compounds were dissolved in either distilled water or distilled water plus 0.1 M AMS, and administered by the subcutaneous route in a final volume of 10 ml/Kg. Control animals received 10 ml/Kg of the appropriate vehicle alone. Following a pretreatment period of 20 min., mice were injected intraperitoneally with p-phenylquinone, 2 mg/Kg at 37° C. in a final volume of […]. […] During this period the number of abdominal writhing responses per animal were recorded where writhing consists of an intermittent contraction of the abdomen associated with hind leg extension.
The degree of antinociceptive protection afforded by the test compound was determined as the mean number of writhing responses observed in the treated group (T) expressed as a percentage of the mean number of writhing responses in the control group (C) according to the following formula:
[1-(T/C]×100%=% graded protection

T1 sequence (P41144 whole entry): as the sequence (P41144 whole entry) above

As to `O=C1CCCc2cc(CC(=O)N3CCCCC3CN3CCCC3)ccc21` (stereo not drawn) [Example 1, 1-[1-oxo-3,4,-dihydro-(2H)-naphth-6-yl]acetyl-2-(pyrrolidin-1-yl)methyl-piperidine hydrochloride], the Ki (commonly the dissociation constant of the complex between target and ligand, obtained from inhibition or displacement) is 81.7 nM in assay [1], 5.24 nM in assay [3] and more than 1000 nM in assay [4]. In addition, the “MOUSE TAIL-FLICK % Analgesia” value in the assay with mice [2] (dose 0.550 mg/kg) came out at 50%. Besides, the ED50 (as a rule, the dose at which the effect has come halfway, by size or by number of responders) in the assay with mice [5] worked out at 0.235 mg/kg.
In the case of `O=C1CCCc2cc(CC(=O)N3CCCC[C@H]3CN3CCCC3)ccc21` [Example 2, (2S)-1-[1-oxo-3,4,-dihydro-(2H)-naphth-6-yl]acetyl-2-(pyrrolidin-1-yl)methyl-piperidine hydrochloride], the Ki in assay [1] is 49 nM; in assay [3], 2.21 nM; in assay [4], 2980 nM. Besides, the “MOUSE TAIL-FLICK % Analgesia” value in the assay with mice [2] (dose 0.233 mg/kg) amounted to 50%. In addition, in the assay with mice [5], the ED50 was 0.138 mg/kg.
Turning to `CC(=O)c1ccc(CC(=O)N2CCCC[C@H]2CN2CCCC2)cc1C` [Example 4, (2S)-1-(3-methyl-4-acetylphenyl)acetyl-2-(pyrrolidin-1-yl)methyl-piperidinehydrochloride hydrate], the “MOUSE TAIL-FLICK % Analgesia” value in the assay on mice [2] (dose 8.6 mg/kg) is 80%.
For the compound `O=C1CCCc2ccc(CC(=O)N3CCCC[C@H]3CN3CCCC3)cc21` [Example 6, (2S)-1-[1-oxo-3,4-dihydro-(2H)-naphth-7-yl] acetyl-2-(pyrrolidin-1-yl)methyl-piperidine hydrochloride], the “MOUSE TAIL-FLICK % Analgesia” value in the assay with mice [2] (dose 10 mg/kg) amounted to 80%.
